Source: patent US11370822B2, “Self-assembling peptide for activating human mast cells” (The Governors of the University of Alberta, priority 2017, dated 2022)
Read-outs that look alike come from different tables or passages of the source.

How the values were obtained:
TPSAB1 (tryptase) mRNA = assay: In vitro activation of mast cells in human skin, ddPCR for TPSAB1 expression; details: human skin without epidermis (NSE), 4 h; 10 μM PAMP-12, pure (RADA)4 matrix or matrix with 20% w/w (RADA)4-GG-(PAMP-12); NS average taken as 100
Excerpt: Human skin was harvested from abdominoplasty surgical discard specimens obtained following written informed consent as approved by the University of Alberta research ethics board. All tissue was from healthy non-smokers in their 30s. Human skin was separated from the underlying adipose tissue using a 15 blade scalpel. The epidermis was then removed using a […] dermatome (Integra LifeSciences Corporation, Cincinnati, Ohio) set to 0.25 mm thickness. The deepithelialized dermis was then divided into multiple pieces 1 cm^2 using sharp surgical scissors. Control or active hydrogel matrix (100 μl) was then layered onto the exposed surface of the dermis. […] For some groups, PBS and PAMP-12 PBS solution were used as negative and positive control. Following this, tissue pieces were removed and snap frozen in liquid nitrogen and stored at -80° C. until further processing. […] To obtain the absolute quantity of TPSAB1 transcripts, ddPCR (QX100, Bio-Rad, Hercules, Calif.) was employed using 5 ng of each cDNA sample and ddPCR supermix for the specific probes (Bio-Rad) according to manufacturer's protocols. […] QuantaSoft Software (Bio-Rad) was employed to analyze ddPCR results, and the absolute concentration of TPSAB1 transcripts in each sample determined by ddPCR was divided by the ACTB transcripts and presented as percentage based on normal skin samples (NS average taken as 100).

LAD2 cells [1] = assay: β-hex release assay, co-culture with well insert (0.2 μm pore size filter); type: cell-based, human; details: 30 min
Protocol: To evaluate the immobilization effect of (RADA)4-GG-(PAMP-12) (SEQ ID NO: 2) in the matrices. As shown in FIG. 6 (A), 0.25×10^5 LAD2 cells in 100 μl HEPES buffer (10 mM, with 0.4% BSA, pH 7.4) were co-incubated with well inserts that contain 50 μl of self-assembling matrix (20% and 100% w/w of (RADA)4-GG-(PAMP-12) (SEQ ID NO: 2)) or PAMP-12 (SEQ ID NO: 3) solution in HEPES buffer (10 mM, with 0.4% BSA, pH 7.4) with the corresponding concentration (0.29 and 1.46 mM respectively). After 30 min incubation, inserts were removed, and the β-hex release was measured as described.

LAD2 cells [2] = assay: β-hexosaminidase (β-hex) release assay, peptide solutions; type: cell-based, human; details: 30 min; for LAD2 degranulation (β-hex release): peptide solutions, various concentrations, compared with PBS; for β-hex release (plateau): solution free peptide, 10 μM
Protocol: LAD2 (Laboratory of Allergic Diseases 2) human mast cells were incubated in StemPro-34 SFM medium (Life Technologies, Rockville, Md.) supplemented with 2 mM L-glutamine, 100 I/ml penicillin, 50 μg/ml streptomycin, 100 ng/ml recombinant human SCF (Peprotech, Rocky Hill, N.J.). Cells were maintained at 0.1×10^6 cells/ml at 37° C. and 5% CO2. Cell suspensions were isolated via centrifugation (200 g, 5 min, at room temperature) and media was replaced every 3-7 days. For each well, 0.25×10^5 LAD2 cells were washed and resuspended in 90 μl HEPES buffer (10 mM, with 0.4% BSA, pH 7.4), and activated by adding 10 μl peptide solutions (PAMP-12 […], (RADA)4 (SEQ ID NO: 1) and (RADA)4-GG-(PAMP-12) (SEQ ID NO: 2)) in PBS (1×, pH 7.4) for 30 min at 37° C., the final concentrations of peptide are 0, 0.01, 0.1, 1, 10, 20, 50, 100 μM respectively. β-hex release was quantified through analysis of the hydrolysis of p-nitrophenyl N-acetyl-b-D-glucosamide (Sigma Aldrich, Oakville, ON, Canada) in 0.1 M sodium citrate buffer (pH 4.5) for both the supernatant and in total cell lysates solubilized with 0.01% Triton X-100 for 90 min at 37° C. The reaction was stopped by adding glycine buffer (pH 10.7). Read absorbance at 405 nm with reference filter at 620 nm. The percent-age of β-hex released into the supernatant was calculated by the β-hex contents of supernatant and cell lysate.

LAD2 cells [3] = tested on: LAD2 cells
Protocol: (§2) LAD2 cells were suspended in culture medium (50 μl, 1.0×10^6 cells/ml) and placed on top of 50 μl of hydrogel matrix or culture medium solution. After an 4 h or 24 h incubation, cell viability was measured using a 2,3-bis-(2-methoxy-4-nitro-5-sulfophenyl)-2H-tetrazolium-5-carboxanilide (XTT) proliferation kit (Roche Molecular Biochemicals, Indianapolis, Ind., USA), according to the manufacturer's supplied instructions. To facilitate a uniform distribution of color throughout the hydrogel matrix, 50 μl of DMSO was added into each well prior to analysis.

LAD2 cells [4] = assay: Laser-scanning confocal microscopy of LAD2 cells on hydrogel matrices (adhesion, F-actin); type: cell-based, human; details: 0.5% w/v matrix (pure (RADA)4 or 20% w/w (RADA)4-GG-(PAMP-12))
Protocol: For each sample, 0.25×10^5 LAD2 cells in 50 μl culture medium were allowed to incubate with 50 μl hydrogel matrix for 30 min at 37° C. After incubation, the medium was disposed, and hydrogel matrix was carefully washed by warm PBS for 3 times to remove non-adherent cells. Hydrogel matrices were then fixed in 3.7% paraformaldehyde in PBS for 20 min at room temperature and 3 times washed in PBS. Cells were permeabilized with 0.1% Triton X-100 in PBS for 5 min, washed in PBS for 3 times, then followed by 3% BSA blocking for 30 min and 3 times washing in PBS. To stain F-actin, samples were incubated with 0.5 μM Phalloidin-FITC (Sigma-Aldrich, USA) for 30 minutes and followed by 3 times washing in PBS. Cell nuclei were stained with 1 ug/mL DAPI (Sigma-Aldrich, USA) in PBS for 30 min. After 3 times washing in PBS, Z-slice images of the matrix with adhered LAD2 cells were collected using Laser Scanning Confocal Microscopy (LSM710, Carl Zeizz AG, Oberkochen, Germany) with an inverted 10× objective.

LAD2 cells [5] = assay: Cell viability analysis using XTT assay; details: for cytotoxicity to LAD2 cells (XTT): PAMP-12 10 μM, 0.5% w/v hydrogel matrices (pure (RADA)4 or 20% w/w (RADA)4-GG-(PAMP-12)), 4 h or 24 h; for effect on LAD2 proliferation (XTT): same treatments, after 24 h incubation
Protocol: as §2

LAD2 cells [6] = assay: β-hex release assay, LAD2 cells on top of hydrogel matrices; type: cell-based, human; details: for degranulation activity (β-hex release): 30 min
Protocol: (§1) (RADA)4 (SEQ ID NO: 1) and (RADA)4-GG-(PAMP-12) (SEQ ID NO:2) stock solutions (1.0% w/v) were prepared by dissolving peptide powder in syringe filtered (0.2 μm) Milli-Q water. Peptide stock solutions were sonicated for 30 min to avoid bulk aggregates and reduce viscosity. (RADA)4 peptide solutions with different proportion of (RADA)4-GG-(PAMP-12) (SEQ ID NO: 2) (0, 2.5, 5, 10, 20, 40, 80, 100% w/w) were mixed with 1x PBS (pH 7.4) at a ratio of 1:1 (v/v) to get hydrogel matrices with peptide concentration of 0.5% w/v. Fifty μl of the mixture was placed at the bottom of a 96-well plate or well insert, overnight at 4° C. and washed with HEPES buffer (10 mM, with 0.4% BSA, pH 7.4) or PBS for 3 times.
LAD2 (Laboratory of Allergic Diseases 2) human mast cells were incubated in StemPro-34 SFM medium (Life Technologies, Rockville, Md.) supplemented with 2 mM L-glutamine, 100 I/ml penicillin, 50 μg/ml streptomycin, 100 ng/ml recombinant human SCF (Peprotech, Rocky Hill, N.J.). Cells were maintained at 0.1×10^6 cells/ml at 37° C. and 5% CO2. Cell suspensions were isolated via centrifugation (200 g, 5 min, at room temperature) and media was replaced every 3-7 days.
To evaluate the effect of the matrices on degranulation, 0.25×10^5 LAD2 cells in 50 μl HEPES buffer (10 mM, with 0.4% BSA, pH 7.4) were carefully placed on the top of 50 μl hydrogel matrices, and the β-hex release was measured as described. After 30 min incubation, cell free supernatant and total cells with the matrices were collected by centrifugation (300 g, 5 min) for analysis.

[7] = AFM morphology of self-assembling peptide nanofiber matrices; type: physicochemical
Protocol: as §1
The morphology of the hydrogel matrices were measured using Dimension 3100 Nanoman Atomic Force Microscopy (AFM, Veeco Metrology, LLC) with tapping mode, tip radius of 8 nm. Matrix solutions used in AFM studies were prepared by 500 times diluted with Mili-Q water. A drop (5 ul) of each solution was placed on freshly cleaved mica substrate then rise with water. The surfaces were air dried overnight at room temperature before being imaged.

[8] = pure (RADA)4-GG-(PAMP-12), 0.5% w/v

Row | nanofiber length (most of the nanofibers) ([7]; 20% and 40% w/w (RADA)4-GG-(PAMP-12) in (RADA)4, 0.5% w/v) | nanofiber length (most of the nanofibers) [7, 8] | nanoparticle size [7, 8] | nanofiber height (AFM cross section) ([7]; pure peptide, 0.5% w/v matrix) | Compound | TPSAB1 expression level, normalized to ACTB (TPSAB1 (tryptase) mRNA) | degranulation of LAD2 (β-hex release) (LAD2 cells [1]; 0.29 mM PAMP-12 solution in insert) | degranulation of LAD2 (β-hex release) (LAD2 cells [1]; 1.46 mM PAMP-12 solution in insert) | LAD2 degranulation (β-hex release) (LAD2 cells [2]) | β-hex release (plateau) (LAD2 cells [2]) | effect on LAD2 proliferation (XTT) (LAD2 cells [3]) | F-actin organization / cell morphology of LAD2 cells (LAD2 cells [4]; 2D imaging) | LAD2 cells associated with matrix post-wash (LAD2 cells [4]; 30 min incubation) | cytotoxicity to LAD2 cells (XTT) (LAD2 cells [5]) | effect on LAD2 proliferation (XTT) (LAD2 cells [5]) | degranulation activity (β-hex release) (LAD2 cells [6]; 0.5% w/v hydrogel matrix with 20% w/w (RADA)4-GG-(PAMP-12)) | degranulation activity (β-hex release) (LAD2 cells [6]; 0.5% w/v hydrogel matrix with 40% w/w (RADA)4-GG-(PAMP-12)) | degranulation activity versus proportion in matrix (LAD2 cells [6]; (RADA)4-GG-(PAMP-12) from 2.5 to 20% w/w in matrix) | degranulation of LAD2 (β-hex release) (LAD2 cells [1]; 0.5% w/v matrix with 20% w/w (RADA)4-GG-(PAMP-12) in insert) | degranulation of LAD2 (β-hex release) (LAD2 cells [1]; matrix of 100% w/w (RADA)4-GG-(PAMP-12) in insert) | nanostructure morphology ([7]; pure peptide, 0.5% w/v)
1 | – | – | – | – | CC(=O)N[C@@H](Cc1ccccc1)C(=O)N[C@@H](CCCNC(=N)N)C(=O)N[C@@H](CCCCN)C(=O)N[C@@H](CCCCN)C(=O)N[C@@H](Cc1c[nH]c2ccccc12)C(=O)N[C@@H](CC(N)=O)C(=O)N[C@@H](CCCCN)C(=O)N[C@@H](Cc1c[nH]c2ccccc12)C(=O)N[C@@H](C)C(=O)N[C@@H](CC(C)C)C(=O)N[C@@H](CO)C(=O)N[C@@H](CCCNC(=N)N)C(N)=O [PAMP-12, Ac-FRKKWNKWALSR-CONH2, reference compound] | 224.2±9.920 percentage | 65.4±2.6% | 69.5±1.2% | induced significant degranulation | ~75% | no statistically significant effect | – | – | – | – | – | – | – | – | – | –
2 | > 500 nm | less than 500 nm | less than 200 nm | 2.5-3.5 nm | CC(=O)N[C@@H](CCCNC(=N)N)C(=O)N[C@@H](C)C(=O)N[C@@H](CC(=O)O)C(=O)N[C@@H](C)C(=O)N[C@@H](CCCNC(=N)N)C(=O)N[C@@H](C)C(=O)N[C@@H](CC(=O)O)C(=O)N[C@@H](C)C(=O)N[C@@H](CCCNC(=N)N)C(=O)N[C@@H](C)C(=O)N[C@@H](CC(=O)O)C(=O)N[C@@H](C)C(=O)N[C@@H](CCCNC(=N)N)C(=O)N[C@@H](C)C(=O)N[C@@H](CC(=O)O)C(=O)N[C@@H](C)C(=O)NCC(=O)NCC(=O)N[C@@H](Cc1ccccc1)C(=O)N[C@@H](CCCNC(=N)N)C(=O)N[C@@H](CCCCN)C(=O)N[C@@H](CCCCN)C(=O)N[C@@H](Cc1c[nH]c2ccccc12)C(=O)N[C@@H](CC(N)=O)C(=O)N[C@@H](CCCCN)C(=O)N[C@@H](Cc1c[nH]c2ccccc12)C(=O)N[C@@H](C)C(=O)N[C@@H](CC(C)C)C(=O)N[C@@H](CO)C(=O)N[C@@H](CCCNC(=N)N)C(N)=O [(RADA)4-GG-(PAMP-12)] | 191.1±12.0 percentage | – | – | induced significant degranulation | ~75% | – | lamellipodia and filopodia were observed | considerable amount of cells retained after washing | not cytotoxic | no statistically significant effect | 64.2±3.4% | 70.2±7.1% | increased proportionally | 11.1±1.1% | 59.6±3.1% | thick and short nanofibers and even small nanoparticles
3 | – | – | – | – | CC(=O)N[C@@H](CCCNC(=N)N)C(=O)N[C@@H](C)C(=O)N[C@@H](CC(=O)O)C(=O)N[C@@H](C)C(=O)N[C@@H](CCCNC(=N)N)C(=O)N[C@@H](C)C(=O)N[C@@H](CC(=O)O)C(=O)N[C@@H](C)C(=O)N[C@@H](CCCNC(=N)N)C(=O)N[C@@H](C)C(=O)N[C@@H](CC(=O)O)C(=O)N[C@@H](C)C(=O)N[C@@H](CCCNC(=N)N)C(=O)N[C@@H](C)C(=O)N[C@@H](CC(=O)O)C(=O)N[C@@H](C)C(N)=O [(RADA)4, RADARADARADARADA, reference compound] | – | – | – | – | – | – | – | – | not cytotoxic | no statistically significant effect | – | – | – | – | – | –
